Experimental findings from patent US20220264883A1, “IMIDAZOTHIAZOLE COMPOUNDS AND METHODS FOR TREATING PLANT NEMATODE INFECTIONS” (The Governing Council of the University of Toronto, priority 2019, published 2022) are described below.

Read-outs that look alike come from different tables or passages of the source.

Data set [1] can be described thus: HEK cell culture and dose-response experiments. The class given is cell-based, Human. The settings on record: human, HEK293 cells, non-target system, CellTiter-Blue, read-out: HEK Cells LC50. Here is the method: HEK293 cells were seeded into 96-well plates, at 5000 cells per well, in 100 μL total volumes of DMEM/10% FBS/1% PS media and grown overnight at 37° C. in the presence of 5% CO2. Compounds (0.5 μL volumes from appropriate source plates) were then added to cells, and growth was continued for an additional 48 hours. Following growth, 10 μL of CellTiter-Blue Viability reagent (Promega) was added to each well, and plates were incubated for an additional 4 hours at 37° C. in the presence of 5% CO2. Fluorescence measurements (560 nm excitation/590 nm emission) were then performed using a CLARIOstar Plate Reader (BMG Labtech) to quantify reagent reduction and estimate cell viability.
(Alamar Blue is a resazurin reagent that responds to reducing activity.)

The subject of another data set is C. elegans. Kind of data set: C. elegans dose-response experiments (wild type; embryo to adult and dauer stages). The class given is in vivo. The settings on record: for LC50: Caenorhabditis elegans. As to the method: Forty microliters of an HB101 bacterial suspension in liquid NGM (see above) was added to each well of a 96-well flat-bottom culture plate, after which approximately 25 synchronized L1 worms, in 10 μl of M9 buffer (see ref. 59 for the recipe), were added to each well. The synchronized L1 worms were obtained from an embryo preparation performed the previous day (see ref. 59 for the protocol). For the L1 assays, 0.5 μl of chemical solution (or DMSO alone) was immediately added to the wells using a multichannel pipette, the final DMSO concentration is 1% (v/v). The worms were incubated for 3 days at 20° C. and the number of viable animals was counted. […] Although the counts were performed after 3 days of incubation in the chemical, it was noted that the L1s were dead within 24 hours of the addition of the chemicals. For the L2/L3 assays, the worms were incubated in the absence of chemical for 1 day at 20° C. until they reached the L2/L3 stage, at which point chemical was added as described above. The worms were then allowed to incubate for 2 days at 20° C. and the number of viable animals was counted as described for the L1 assay. For the L4 assays, the worms were incubated for 2 days at 20° C. before the addition of chemicals. The L4-stage worms were then incubated in chemical for an additional day before quantifying the number of viable animals. The adult assays were performed the same way as the L4 assays, however HT115 E. coli carrying the empty dsRNA expressing vector L4440 was used in place of HB101 and the worms were cultured at 25° C. as opposed to 20° C. for the entirety of the experiment. The HT115 suspension was made by concentrating a bacterial culture, with an OD600 of ˜ 0.8, five-fold with liquid NGM containing 1 mM IPTG and 100 μg/ml carbenicillin. The HT115 cells were induced with 1 mM IPTG for one hour before concentrating with NGM.
For the dose-response experiments with embryos, eggs obtained from an embryo preparation were immediately aliquoted into 96-well plate wells. Approximately 25 embryos in 50 μl of M9 buffer were added to each well, and 0.5 μl volumes of the chemicals were added via multichannel, in the same way as for the L1 dose-response assays described above. The plates were incubated at 20° C. for 1 day, at which point the number of hatched eggs was counted.
For the dauer dose-response assays, the CB1370 strain carrying the temperature sensitive daf-2(e1370) allele was used. When grown at the non-permissive temperature of 25° C. these mutants will enter dauer constitutively. The assay was performed similarly to the […] described above, however the L1 worms were allowed to grow for 2 days at 25° C. until they became dauer larvae. At this point chemical was added and the dauers were incubated for 2 days at 25° C. before quantitation of viability. After 2 days, all of the dauer larvae, including the DMSO controls, were relatively motionless and appeared as rigid rods. To activate the worms, 1 μl of 1 N sodium hydroxide was added to each well and the plates were agitated vigorously before counting. This was done one well at a time.
At least three biological replicates were performed for each dose-response assay. For each biological replicate, two technical replicates were performed and the numbers of viable animals for each technical replicate were combined (i.e. ˜50 worms assayed per concentration). The number of viable worms at each concentration was divided by the corresponding DMSO control value to give the “relative viability” for each concentration. The “relative viability” values were then averaged across the biological replicates. LC50 values were calculated using Graphpad Prism. The concentration values were log-transformed and a four-parameter logistic curve was fitted to the dose-response data by non-linear regression, from which the LC50 values were extracted.

The subject of another data set is P. pacificus. Description: Pristionchus pacificus dose-response experiments. The class given is in vivo. The settings on record: larvae, animals reaching L3 stage or older counted. Here is the method: Dose-response assays were carried out exactly as those described above for the C. elegans L1 dose-response experiments. However, the compounds of the application-induced phenotypes in P. pacificus, even at the highest concentrations, were a combination of lethality and larval arrest. Therefore, for the Pristionchus dose-response assays, the number of animals that reached the L3 stage or older was quantified, as opposed to the number of viable worms. The arrested animals appeared very sick, and would likely die before reaching reproductive adulthood. Therefore, this arrested phenotype was considered to be practically analogous to lethality. The “relative viability” values were calculated the same way as for the C. elegans dose-response experiments, and were averaged across at least three biological replicates. LC50 values were calculated in the same manner as for the C. elegans dose-response assays.

Data set [2] can be described thus: Danio rerio (zebrafish) embryo dose-response experiments. In kind it is in vivo. The settings on record: AB/Tubingen, Danio rerio (zebrafish), in vivo, other: immersion in chemical-treated water; non-target system; embryos, 24 hours exposure; read-out: D. rerio LC50. Here is the method: Zebrafish chemical assays were performed similarly to previously described methods^63. In brief, fish were maintained at 28.5° C. on a 14/10 hour light/dark cycle and staged according to hours post fertilization (hpf). For each biological replicate, eggs from LT fish (AB/Tubingen strain) were collected at 4 hpf. At 24 hpf, embryos were arrayed in 24 well plates, 10 per well. In 2 ml tubes, 4 μl of chemical dissolved in DMSO at the appropriate concentration was added to 800 μl of water and then vortexed for 30 s intensively. Water was removed from the embryos in the wells and 800 μl of chemical-treated water was transferred to each of the wells. The DMSO control wells contained DMSO alone. The final DMSO concentration in every well was 0.5% (v/v). […] The embryos were incubated in the chemicals for 24 hours and scored for death and toxicity at 48 hpf. Toxicity was defined as the embryos showing developmental defects such as a curved body, reduced body size, skin whiteness, and heart edema. “Relative viability” was calculated by dividing the number of viable and properly developed embryos in the treatment wells by the average number of viable and properly developed embryos across six DMSO control wells. Three biological replicates were performed for each dose-response experiment, and the relative viability values were averaged across the three replicates.

Setting [3] is: 72 h, L1 worms, 3 days at 20° C., read-out: C. elegans LC50.
Setting [4] is: wild-type, resistance none, read-out: LC50 in strain N2.

For `Cc1csc2nc(-c3ccccc3)cn12` [Compound Ie], the CC50 at 48 h in data set [1] was over 100 µM. Further, the LC50 (as a rule, the concentration that kills 50% of the test population) was over 100 µM in the data set with C. elegans (setting [3]) and 45.5 µM with P. pacificus. The 50% lethal concentration (LC50) at 24 h in data set [2] was over 100 µM.

For `Clc1ccc(-c2cn3ccsc3n2)cc1` [Ia], in data set [1], the CC50 at 48 h is over 100 µM. In addition, the results for the LC50 in the data set with C. elegans (setting [3]), in the data set on C. elegans (setting [4]) and in the data set on P. pacificus were 6.9 µM, 6.9 µM and 6.1 µM, respectively. The “killing of each developmental stage of C. elegans from embryo to adult” value in the data set on C. elegans (FIG. 1B) is “micromolar potency”. Besides, the “killing of the non-reproductive dauer stage of C. elegans” value in the data set with C. elegans (daf-2(e1370) dauers, FIG. 1B) is reported as “can also kill the non-reproductive dauer stage”. For the same compound, the 50% lethal concentration (LC50) at 24 h in data set [2] is over 100 µM.

Regarding `Fc1ccc(-c2cn3ccsc3n2)cc1` [Ib], the CC50 at 48 h in data set [1] is over 100 µM. The results for the LC50 with C. elegans (setting [3]), in the data set with C. elegans (setting [4]) and in the data set with P. pacificus were 29.7 µM, 29.7 µM and 14.7 µM, respectively. For the same compound, in data set [2], the median lethal concentration (LC50) at 24 h is over 100 µM.
